Reference: US8722332B2, “Macrocyclic lactone resistance marker for dirofilaria immitis” (priority 2010, dated 2014)
Entries after “also recorded” stand apart in the source; their conditions may differ. Like-named read-outs stand apart in the source and are kept apart here. Marks after values point to notes of the source that are not given here.

What was measured:
adult heartworms = conditions: dog, in vivo
[1] = system: adult heartworms (D. immitis antigen); set-up: species or system Dirofilaria immitis; conditions: in vivo; dihydrochloride
mf = conditions: in vivo; cited from earlier work
D. immitis mf = system: D. immitis mf; set-up: species or system Dirofilaria immitis; conditions: in vivo

Row | Molecule | clinical signs after adulticide (adult heartworms) | Antigen test DiroChek result (+ve or −ve) [1] | Antigen test PetChek result (+ve or −ve) [1] | Antigen test SNAP result (+ve or −ve) [1] | dose previously shown to kill mf (mf) [mg/kg] | Microfilariae in blood (Knott's test) (D. immitis mf) | Microfilariae concentration in blood (D. immitis mf; po) | Microfilariae in blood (Knott's test) (D. immitis mf; po)
1 | Cl.Cl.NCCS[As](SCCN)c1ccc(Nc2nc(N)nc(N)n2)cc1 [melarsomine, melarsomine dihydrochloride] | transitory signs consistent with death of adult heartworms | still negative; also recorded: DiroChek −ve^c | negative; also recorded: PetChek −ve^a | still negative; also recorded: SNAP −ve^a | – | – | – | –
2 | milbemycin oxime [MO] | – | – | – | – | 0.5 | remained continually microfilaremic; also recorded: mf were still present; also recorded: Knott's test +ve^a; also recorded: Knott's test +ve^c | – | –
3 | CC[C@H](C)[C@H]1O[C@]2(CC[C@@H]1C)C[C@@H]1C[C@@H](C/C=C(\C)[C@@H](O[C@H]3C[C@H](OC)[C@@H](O[C@H]4C[C@H](OC)[C@@H](O)[C@H](C)O4)[C@H](C)O3)[C@@H](C)/C=C/C=C3\CO[C@@H]4[C@H](O)C(C)=C[C@@H](C(=O)O1)[C@]34O)O2 [IVM, ivermectin] | – | – | – | – | 0.05 | – | ≧100^b mf/ml | remained continually microfilaremic; also recorded: still microfilaremic; also recorded: Knott's test +ve^a
